The target in experiment [1] is T1, CepR (Burkholderia cenocepacia, UniProt B4EMD0).
T1 construct: HIS-CepR fusion protein (pDBHT2), cleaved with TEV protease
Kind of experiment: ITC with purified protein (one-site model); EMSA shows inhibited binding to bclACB promoter. For orientation: Mobility shift assays separate free from complexed probe on a gel.

The target in experiment [2] is T2, RqpR.
T2 construct: HIS-RqpR fusion protein (pDBHT2), cleaved with TEV protease
Kind of experiment: ITC with purified protein (one-site model); EMSA shows inhibited binding to rpfFBC and cepI promoters. Also on record: species or system Burkholderia cenocepacia.

The results in this text go back to PMC9430380, “Oridonin Attenuates Burkholderia cenocepacia Virulence by Suppressing Quorum-Sensing Signaling” (Microbiology Spectrum, 2022).

T1 sequence (B4EMD0 entry or part of it): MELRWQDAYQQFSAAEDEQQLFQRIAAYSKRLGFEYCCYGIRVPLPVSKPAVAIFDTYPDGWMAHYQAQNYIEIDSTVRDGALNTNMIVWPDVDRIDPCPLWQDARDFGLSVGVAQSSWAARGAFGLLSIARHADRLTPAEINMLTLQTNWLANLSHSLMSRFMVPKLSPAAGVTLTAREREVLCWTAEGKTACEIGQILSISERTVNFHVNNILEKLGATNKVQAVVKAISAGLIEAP

Consider `C=C1C(=O)[C@]23[C@H](O)[C@H]1CC[C@H]2[C@@]12CO[C@]3(O)[C@@H](O)[C@@H]1C(C)(C)CC[C@@H]2O` [oridonin], for which the results for the equilibrium dissociation constant (Kd) in experiment [1] and in experiment [2] were 13.6 ± 0.826 µM and 8.28 ± 0.895 µM, respectively.
